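96-well plates; 48 h exposure; 5 concentrations. Endpoints by linear interpolation between flanking doses. Not reached: highest tested concentration assigned. Here, GI50 denotes the concentration required for 50% inhibition of growth.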 Calls of active or inactive are those of the source. Cut-off read from the data, not from the text of the source: active = GI50 up to about 1.1 µM and inactive = higher.
Tests used:
Test in all cases: DTP human tumour cell line panel, 48 h
RPMI-8226 = test system: RPMI-8226
SF-268 = test system: SF-268
HL-60 = test system: HL-60
EKVX = test system: EKVX
BT-549 = test system: BT-549
UACC-257 = test system: UACC-257
SNB-75 = test system: SNB-75
MCF7 = test system: MCF7
OVCAR-5 = test system: OVCAR-5
MOLT-4 = test system: MOLT-4
RXF 393 = test system: RXF 393
SN12C = test system: SN12C
TK-10 = test system: TK-10
NCI/ADR-RES = test system: NCI/ADR-RES
786-0 = test system: 786-0
SNB-19 = test system: SNB-19
A549 = test system: A549
A498 = test system: A498
Malme-3M = test system: Malme-3M
NCI-H522 = test system: NCI-H522
U-251 = test system: U-251
M14 = test system: M14
MDA-MB-231 = test system: MDA-MB-231
MDA-N = test system: MDA-N
Hs-578T = test system: Hs-578T
SF-539 = test system: SF-539
ACHN = test system: ACHN
OVCAR-4 = test system: OVCAR-4
HCT-15 = test system: HCT-15
UACC-62 = test system: UACC-62
CAKI-1 = test system: CAKI-1
NCI-H226 = test system: NCI-H226
OVCAR-3 = test system: OVCAR-3
SK-MEL-28 = test system: SK-MEL-28
MDA-MB-435 = test system: MDA-MB-435
LOX IMVI = test system: LOX IMVI
SF-295 = test system: SF-295
SK-OV-3 = test system: SK-OV-3
K562 = test system: K562
HCT-116 = test system: HCT-116
IGROV-1 = test system: IGROV-1
T47D = test system: T47D
DU-145 = test system: DU-145
OVCAR-8 = test system: OVCAR-8
HOP-92 = test system: HOP-92
CCRF-CEM = test system: CCRF-CEM
KM12 = test system: KM12
HOP-62 = test system: HOP-62
NCI-H460 = test system: NCI-H460
COLO 205 = test system: COLO 205
NCI-H23 = test system: NCI-H23
HT-29 = test system: HT-29
PC-3 = test system: PC-3
SK-MEL-5 = test system: SK-MEL-5
SK-MEL-2 = test system: SK-MEL-2
SW-620 = test system: SW-620
HCC 2998 = test system: HCC 2998
UO-31 = test system: UO-31
SR = test system: SR

Structure (SMILES): CN1CCc2c(sc3ncn(C)c(=N)c23)C1
- GI50 (RPMI-8226): > 100 µM (inactive)
- GI50 (SF-268): > 100 µM (inactive)
- GI50 (HL-60): > 100 µM (inactive)
- GI50 (EKVX): > 100 µM (inactive)
- GI50 (BT-549): > 100 µM (inactive)
- GI50 (UACC-257): > 100 µM (inactive)
- GI50 (SNB-75): > 100 µM (inactive)
- GI50 (MCF7): > 100 µM (inactive)
- GI50 (OVCAR-5): > 100 µM (inactive)
- GI50 (MOLT-4): > 100 µM (inactive)
- GI50 (RXF 393): > 100 µM (inactive)
- GI50 (SN12C): > 100 µM (inactive)
- GI50 (TK-10): > 100 µM (inactive)
- GI50 (NCI/ADR-RES): > 100 µM (inactive)
- GI50 (786-0): > 100 µM (inactive)
- GI50 (SNB-19): > 100 µM (inactive)
- GI50 (A549): > 100 µM (inactive)
- GI50 (A498): > 100 µM (inactive)
- GI50 (Malme-3M): > 100 µM (inactive)
- GI50 (NCI-H522): > 100 µM (inactive)
- GI50 (U-251): > 100 µM (inactive)
- GI50 (M14): > 100 µM (inactive)
- GI50 (MDA-MB-231): > 100 µM (inactive)
- GI50 (MDA-N): > 100 µM (inactive)
- GI50 (Hs-578T): > 100 µM (inactive)
- GI50 (SF-539): > 100 µM (inactive)
- GI50 (ACHN): > 100 µM (inactive)
- GI50 (OVCAR-4): > 100 µM (inactive)
- GI50 (HCT-15): > 100 µM
- GI50 (UACC-62): > 100 µM (inactive)
- GI50 (CAKI-1): > 100 µM (inactive)
- GI50 (NCI-H226): > 100 µM (inactive)
- GI50 (OVCAR-3): > 100 µM (inactive)
- GI50 (SK-MEL-28): > 100 µM (inactive)
- GI50 (MDA-MB-435): > 100 µM (inactive)
- GI50 (LOX IMVI): > 100 µM (inactive)
- GI50 (SF-295): > 100 µM (inactive)
- GI50 (SK-OV-3): > 100 µM (inactive)
- GI50 (K562): > 100 µM (inactive)
- GI50 (HCT-116): > 100 µM (inactive)
- GI50 (IGROV-1): > 100 µM (inactive)
- GI50 (T47D): > 100 µM (inactive)
- GI50 (DU-145): > 100 µM (inactive)
- GI50 (OVCAR-8): > 100 µM (inactive)
- GI50 (HOP-92): > 100 µM (inactive)
- GI50 (CCRF-CEM): > 100 µM (inactive)
- GI50 (KM12): > 100 µM (inactive)
- GI50 (HOP-62): > 100 µM (inactive)
- GI50 (NCI-H460): > 100 µM (inactive)
- GI50 (COLO 205): > 100 µM (inactive)
- GI50 (NCI-H23): > 100 µM (inactive)
- GI50 (HT-29): > 100 µM (inactive)
- GI50 (PC-3): > 100 µM (inactive)
- GI50 (SK-MEL-5): > 100 µM (inactive)
- GI50 (SK-MEL-2): > 100 µM (inactive)
- GI50 (SW-620): > 100 µM (inactive)

Structure (SMILES): CCOc1cn(C2CC(O)C(CO)O2)c(=O)[nH]c1=O (stereo not drawn)
- GI50 (RPMI-8226): > 100 µM (inactive)
- GI50 (SF-268): > 100 µM (inactive)
- GI50 (HL-60): > 100 µM (inactive)
- GI50 (EKVX): > 100 µM (inactive)
- GI50 (BT-549): > 100 µM (inactive)
- GI50 (UACC-257): > 100 µM (inactive)
- GI50 (SNB-75): > 100 µM (inactive)
- GI50 (MCF7): 45.9 µM (inactive)
- GI50 (OVCAR-5): > 100 µM (inactive)
- GI50 (MOLT-4): > 100 µM (inactive)
- GI50 (RXF 393): > 100 µM (inactive)
- GI50 (SN12C): > 100 µM (inactive)
- GI50 (TK-10): > 100 µM (inactive)
- GI50 (HCC 2998): > 100 µM (inactive)
- GI50 (NCI/ADR-RES): > 100 µM (inactive)
- GI50 (786-0): > 100 µM (inactive)
- GI50 (SNB-19): > 100 µM (inactive)
- GI50 (A549): > 100 µM (inactive)
- GI50 (A498): 45.8 µM (inactive)
- GI50 (Malme-3M): > 100 µM (inactive)
- GI50 (U-251): > 100 µM (inactive)
- GI50 (M14): > 100 µM (inactive)
- GI50 (MDA-MB-231): > 100 µM (inactive)
- GI50 (MDA-N): > 100 µM (inactive)
- GI50 (Hs-578T): > 100 µM (inactive)
- GI50 (ACHN): > 100 µM (inactive)
- GI50 (OVCAR-4): > 100 µM (inactive)
- GI50 (HCT-15): > 100 µM
- GI50 (UACC-62): > 100 µM (inactive)
- GI50 (CAKI-1): > 100 µM (inactive)
- GI50 (NCI-H226): > 100 µM (inactive)
- GI50 (OVCAR-3): > 100 µM (inactive)
- GI50 (UO-31): > 100 µM (inactive)
- GI50 (SK-MEL-28): > 100 µM (inactive)
- GI50 (MDA-MB-435): > 100 µM (inactive)
- GI50 (LOX IMVI): > 100 µM (inactive)
- GI50 (SK-OV-3): > 100 µM (inactive)
- GI50 (HCT-116): > 100 µM (inactive)
- GI50 (IGROV-1): > 100 µM (inactive)
- GI50 (T47D): > 100 µM (inactive)
- GI50 (DU-145): > 100 µM (inactive)
- GI50 (HOP-92): > 100 µM (inactive)
- GI50 (CCRF-CEM): > 100 µM (inactive)
- GI50 (KM12): > 100 µM (inactive)
- GI50 (HOP-62): > 100 µM (inactive)
- GI50 (NCI-H460): > 100 µM (inactive)
- GI50 (COLO 205): > 100 µM (inactive)
- GI50 (NCI-H23): > 100 µM (inactive)
- GI50 (HT-29): > 100 µM (inactive)
- GI50 (PC-3): > 100 µM (inactive)
- GI50 (SK-MEL-5): > 100 µM (inactive)
- GI50 (SK-MEL-2): > 100 µM (inactive)
- GI50 (SW-620): > 100 µM (inactive)

Structure (SMILES): CN1C(=O)C2C(=O)N(Cc3ccccc3)CC(=O)N2c2cccnc21 (stereo not drawn)
- GI50 (RPMI-8226): > 100 µM (inactive)
- GI50 (SF-268): > 100 µM (inactive)
- GI50 (HL-60): > 100 µM (inactive)
- GI50 (EKVX): > 100 µM (inactive)
- GI50 (BT-549): > 100 µM (inactive)
- GI50 (UACC-257): > 100 µM (inactive)
- GI50 (SNB-75): > 100 µM (inactive)
- GI50 (MCF7): > 100 µM (inactive)
- GI50 (OVCAR-5): > 100 µM (inactive)
- GI50 (MOLT-4): > 100 µM (inactive)
- GI50 (RXF 393): > 100 µM (inactive)
- GI50 (TK-10): > 100 µM (inactive)
- GI50 (NCI/ADR-RES): > 100 µM (inactive)
- GI50 (786-0): > 100 µM (inactive)
- GI50 (SNB-19): > 100 µM (inactive)
- GI50 (A549): > 100 µM (inactive)
- GI50 (SR): > 100 µM (inactive)
- GI50 (A498): > 100 µM (inactive)
- GI50 (Malme-3M): 70.5 µM (inactive)
- GI50 (NCI-H522): > 100 µM (inactive)
- GI50 (U-251): > 100 µM (inactive)
- GI50 (M14): > 100 µM (inactive)
- GI50 (MDA-MB-231): > 100 µM (inactive)
- GI50 (MDA-N): > 100 µM (inactive)
- GI50 (Hs-578T): > 100 µM (inactive)
- GI50 (SF-539): > 100 µM (inactive)
- GI50 (ACHN): > 100 µM (inactive)
- GI50 (OVCAR-4): > 100 µM (inactive)
- GI50 (HCT-15): > 100 µM
- GI50 (UACC-62): > 100 µM (inactive)
- GI50 (CAKI-1): > 100 µM (inactive)
- GI50 (NCI-H226): > 100 µM (inactive)
- GI50 (OVCAR-3): > 100 µM (inactive)
- GI50 (UO-31): > 100 µM (inactive)
- GI50 (MDA-MB-435): > 100 µM (inactive)
- GI50 (LOX IMVI): > 100 µM (inactive)
- GI50 (SF-295): > 100 µM (inactive)
- GI50 (SK-OV-3): > 100 µM (inactive)
- GI50 (K562): > 100 µM (inactive)
- GI50 (HCT-116): > 100 µM (inactive)
- GI50 (IGROV-1): > 100 µM (inactive)
- GI50 (T47D): > 100 µM (inactive)
- GI50 (OVCAR-8): > 100 µM (inactive)
- GI50 (HOP-92): > 100 µM (inactive)
- GI50 (CCRF-CEM): > 100 µM (inactive)
- GI50 (KM12): > 100 µM (inactive)
- GI50 (HOP-62): > 100 µM (inactive)
- GI50 (NCI-H460): > 100 µM (inactive)
- GI50 (COLO 205): > 100 µM (inactive)
- GI50 (NCI-H23): > 100 µM (inactive)
- GI50 (HT-29): > 100 µM (inactive)
- GI50 (PC-3): > 100 µM (inactive)
- GI50 (SK-MEL-5): > 100 µM (inactive)
- GI50 (SK-MEL-2): > 100 µM (inactive)
